Read-outs that look alike come from different tables or passages of the source.
Experiments:
[1] = test system: A549 cells with Kras G12S mutation; experiment: Cell proliferation inhibition experiment, 3D spheroid, CellTiter-Glo (Test Example 1); type: cell-based, human; settings: 5 days
Summary of the method: (§1)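 NCI-H358 (800 cells/well) and A549 (400 cells/well) grown overnight as 3D spheroids in 2% FBS medium, then exposed to compound dilution series (3.16-fold, 0.1% DMSO) for 5 days. CellTiter-Glo luminescence read; inhibition relative to DMSO and blank, IC50 by four-parameter fit.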

[2] = test system: NCI-H358 cells with Kras G12C mutation; experiment: as above; type: cell-based, human; settings: 5 days
Summary of the method: as §1

[3] = test system: phosphorylated ERK in MIA PaCa2 cells with Kras G12C mutation; experiment: p-ERK HTRF assay for cells (Test Example 2); type: cell-based, human; settings: MIA PaCa2 cells, 2 hours with compound, read-out: p-ERK IC50
Summary of the method: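 MIA PaCa2 cells (2.5E4/well, seeded overnight) treated 2 h with compound in a 3.16-fold series at 0.1% DMSO. Cells lysed 30 min; p-ERK read by HTRF after 4 h antibody incubation. Inhibition relative to DMSO and blank; IC50 by four-parameter fit.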

[4] = test system: MIA PaCa-2 cells with Kras G12C mutation; experiment: Cell proliferation inhibition experiment, 3D spheroid, CellTiter-Glo (Test Example 3); type: cell-based, human; settings: 5 days, read-out: MIA-PaCa2 IC50
Summary of the method: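 MIA PaCa-2 spheroids (200 cells/well) were formed overnight, then exposed for 5 days to compounds in 3.16-fold dilutions at 0.1% DMSO. Viability was read by CellTiter-Glo luminescence, and inhibition was normalised to DMSO control and medium blank. IC50 came from a four-parameter fit.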

KRas G12C = KRas G12C (Homo sapiens (Human), UniProt P01116, G12C); experiment: Nucleotide exchange assay (NEA)-HTRF, SOS1 catalyzed displacement of GDP by GTP (Test Example 4); type: biochemical
Procedure: The effects of compounds on SOS1 catalyzed displacement of GDP by GTP on KRas proteins was examined by homogeneous time-resolved fluorescence (HTRF). 30 μM 6×his labeled KRas G12C recombinant protein and 80 μM fluorochrome DY647 labeled GDP were co-incubated in a labeling buffer (1 mM DTT, 7.5 mM EDTA, 25 mM Tris-HCl, 45 mM NaCl) at 20° C. away from light for 2 hours. Protein quantification was performed after purification on the NAP-5 column to determine the concentration of KRas G12C-GDP.
1000× stock solutions of compounds at a concentration gradient of 3.16 were prepared by using DMSO, and diluted 250 times by a reaction buffer (40 mM N-2-hydroxyethylpiperazine-N-2-ethane sulfonic acid (HEPES), 10 mM MgCl2, 1 mM DTT, 0.002% Triton X-100) into 4× stock solutions of compounds. KRas G12C-GDP/Tb working solution (40 nM KRas G12C-GDP, 1×anti-his Tb) and SOS1/GTP working solution (0.2 μM SOS1, 200 μM GTP) were prepared by using the reaction buffer.
5 μl of 4×stock solution of a compound and 10 μl of KRas G12C-GDP/T working solution were added to each well of 96-well plate with white unclear bottom, and 5 μl of reaction buffer was added to the well of control group in stead of the 4×stock solution of a compound. After incubation at 20° C. away from light for 15 minutes, 5 μl of SOS1/GTP working solution was added and incubated at 20° C. away from light for 2 hours, and then a value of fluorescence intensity was read (excitation wavelength: 320 nm, and emission wavelengths: 615 nm and 665 nm). Besides, group TO was established with 10 μl of the reaction buffer and 10 μl of the KRas G12C-GDP/Tb working solution, and the value of fluorescence intensity was directly read. A relative light unit (RLU) was calculated by the following equation: RLU=(665 nm signal/615 nm signal)×10^4; and the inhibition rate (IR) of the compound was calculated by the following equation: IR (%)=(RLUcompound−RLUcontrol)/(RLUT0−RLUcontrol)×100%. The value of IC50 was calculated by fitting a gradiently diluted concentration of the compound and the corresponding cell proliferation inhibition rate using a four-parameter method.

[5] = Homo sapiens, MIA PaCa-2, 120 h

KRas G12C, sequence (P01116-2 other isoform, or with tags, fused parts or gaps G12C): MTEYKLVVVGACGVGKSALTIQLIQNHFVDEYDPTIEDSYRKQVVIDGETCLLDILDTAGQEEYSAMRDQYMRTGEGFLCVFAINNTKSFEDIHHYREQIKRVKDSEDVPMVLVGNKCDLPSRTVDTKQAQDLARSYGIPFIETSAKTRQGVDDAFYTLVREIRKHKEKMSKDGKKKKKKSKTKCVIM

SMILES | IC50 [1] | IC50 [2] | IC50 [3] | IC50 [4, 5] | IC50 (KRas G12C) | IC50 ([1]; Homo sapiens, A549, 120 h) | IC50 ([2]; Homo sapiens, NCI-H358, 120 h) | IC50 ([3]; Homo sapiens, MIA PaCa-2, 2 h) | IC50 [4]
C=CC(=O)N1CCN2c3c(c(=O)n(-c4c(C)ccnc4C(C)C)c4nc(-c5c(O)cccc5F)c(Cl)cc34)NC(=O)[C@H]2C1 (single isomer, unassigned) [Compound Z24-2] | 11300 nM | 3 nM | 61 nM | 4 nM | 38 nM |  |  |  | 
[2H]C([2H])([2H])N1C(=O)[C@H]2CN(C(=O)C=C)CCN2c2c1c(=O)n(-c1c(C(C)C)ncnc1C(C)C)c1c(F)c(-c3c(O)cccc3F)c(Cl)cc21 (single isomer, unassigned) [Compound Z39-2] | 7780 nM | 316 nM |  |  | 2240 nM |  |  |  | 
C=CC(=O)N1C[C@@H]2C(=O)N(C)c3c(c4cc(Cl)c(-c5c(O)cccc5F)c(F)c4n(-c4c(C(C)C)ncnc4C(C)C)c3=O)N2C[C@H]1C [Compound Z50] |  |  |  | 2 nM | 19 nM | 28300 nM | 0.5 nM | 7 nM | 
C=CC(=O)N1C[C@@H]2C(=O)N(C)c3c(c4cc(Cl)c(-c5c(O)cccc5F)c(F)c4n(-c4c(C(C)C)ncnc4C(C)C)c3=O)N2C[C@H]1C (single isomer, unassigned) [Compound Z50-2] | 3870 nM | 320 nM | 316 nM |  | 1450 nM |  |  |  | 
C=CC(=O)N1C[C@@H]2C(=O)N(C)c3c(c4cc(F)c(-c5c(O)cccc5F)nc4n(-c4c(C#N)cccc4C(C)C)c3=O)N2C[C@H]1C (atropisomer, axis not shown) [Compound Z38-1, 2-((2R,4aR)-3-acryloyl-11-fluoro-10-(2-fluoro-6-hydroxyphenyl)-2,6-dimethyl-5,7-dioxo-2,3,4,4a,5,6-hexahydro-1H-pyrazino[1′,2′:4,5]pyrazino[2,3-c][1,8]naphthyridin-8(7H)-yl)-3-isopropylbenzonitrile] | > 30000 nM | 7 nM | 212 nM |  | 53 nM |  |  |  | 27 nM
C=CC(=O)N1CCN2c3c(c(=O)n(-c4c(C)ccnc4C(C)C)c4nc(-c5c(O)cccc5F)c(Cl)cc34)NC(=O)[C@H]2C1 [Compound Z24, (4aR)-3-acryloyl-11-chloro-10-(2-fluoro-6-hydroxyphenyl)-8-(2-isopropyl-4-methylpyridin-3-yl)-2,3,4,4a,6,8-hexahydro-1H-pyrazino[1′,2′:4,5]pyrazino[2,3-c][1,8]naphthyridin-5,7-dione] |  |  |  | 9 nM | 58 nM | 28100 nM | 3 nM | 113 nM | 
C=CC(=O)N1C[C@@H]2C(=O)N(C)c3c(c4cc(F)c(-c5c(O)cccc5F)nc4n(-c4c(C)ccnc4C(C)C)c3=O)N2C[C@H]1C [Compound Z10, (2R,4aR)-3-acryloyl-11-fluoro-10-(2-fluoro-6-hydroxyphenyl)-8-(2-isopropyl-4-methylpyridin-3-yl)-2,6-dimethyl-2,3,4,4a,6-hexahydro-1H-pyrazino[1′,2′:4,5]pyrazino[2,3-c][1,8,8]naphthyridin-5-dione] |  |  |  |  | 67 nM | 12100 nM | 8 nM | 75 nM | 
C=CC(=O)N1CCN2c3c(c(=O)n(-c4c(C)ccnc4C(C)C)c4nc(-c5c(O)cccc5F)c(F)cc34)OC[C@H]2C1 (single isomer, unassigned) [Compound Z1-1] | 10700 nM | 31 nM |  | 95 nM | 152 nM |  |  | 512 nM | 
C=CC(=O)N1C[C@@H]2C(=O)N(C)c3c(c4cc(F)c(-c5c(O)cccc5F)nc4n(-c4c(C#N)cccc4C(C)C)c3=O)N2C[C@H]1C (atropisomer, axis not shown) [Compound Z38-2, 2-((2R,4aR)-3-acryloyl-11-fluoro-10-(2-fluoro-6-hydroxyphenyl)-2,6-dimethyl-5,7-dioxo-2,3,4,4a,5,6-hexahydro-1H-pyrazino[1′,2′:4,5]pyrazino[2,3-c][1,8]naphthyridin-8(7H)-yl)-3-isopropylbenzonitrile] | > 30000 nM | 513 nM |  |  | 2150 nM |  |  |  | 
C=CC(=O)N1CCN2c3c(c(=O)n(-c4c(C)ncnc4C(C)C)c4nc(-c5c(O)cccc5F)c(F)cc34)N(C)C(=O)[C@H]2C1 (single isomer, unassigned) [Compound Z21-2] | > 30000 nM | 407 nM |  |  | 3940 nM |  |  |  | 
C=CC(=O)N1CCN2c3c(c(=O)n(-c4c(C)ncnc4C(C)C)c4nc(-c5c(O)cccc5F)c(F)cc34)N(C)C(=O)[C@H]2C1 [Compound Z21, (4aR)-3-acryloyl-11-fluoro-10-(2-fluoro-6-hydroxyphenyl)-8-(4-isopropyl-6-methylpyrimidin-5-yl)-6-methyl-2,3,4,4a,6,8-hexahydro-1H-pyrazino[1′,2′:4,5]pyrazino[2,3-c][1,8]naphthyridin-5,7-dione] |  |  |  | 47 nM | 388 nM | > 30000 nM | 23 nM | 271 nM | 
C=CC(=O)N1C[C@@H]2C(=O)Nc3c(c4cc(F)c(-c5c(O)cccc5F)nc4n(-c4c(C)ccnc4C(C)C)c3=O)N2C[C@H]1C [Compound Z35, (2R,4aR)-3-acryloyl-11-fluoro-10-(2-fluoro-6-hydroxyphenyl)-8-(2-isopropyl-4-methylpyridin-3-yl)-2-methyl-2,3,4,4a,6,8-hexahydro-1H-pyrazino[1′, 2′:4]pyrazino[2,3,3-c][1,8,8]naphthyridin-5-dione] |  | 6 nM | 83 nM | 15 nM | 73 nM | 28200 nM |  |  | 
C=CC(=O)N1CCN2c3c(c(=O)n(-c4c(C)ccnc4C(C)C)c4nc(-c5c(O)cccc5F)c(Cl)cc34)N(C)C(=O)[C@H]2C1 (single isomer, unassigned) [Compound Z25-1] |  | 50 nM |  |  | 951 nM | > 30000 nM |  |  | 
C=CC(=O)N1CCN2c3c(c(=O)n(-c4c(C(C)C)ncnc4C(C)C)c4c(F)c(-c5c(O)cccc5F)c(Cl)cc34)NC(=O)[C@H]2C1 (single isomer, unassigned) [Compound Z37-2] | 3320 nM | 165 nM |  |  | 1900 nM |  |  |  | 
C=CC(=O)N1C[C@@H]2C(=O)N(C)c3c(c4cc(Cl)c(-c5c(O)cccc5F)nc4n(-c4c(C)ccnc4C(C)C)c3=O)N2C[C@H]1C (single isomer, unassigned) [Compound Z27-1] |  | 12 nM | 157 nM |  | 198 nM | 12700 nM |  |  | 
C=CC(=O)N1CCN2c3c(c(=O)n(-c4c(C)ccnc4C(C)C)c4nc(-c5c(O)cccc5F)c(Cl)cc34)NC(=O)[C@H]2C1 (single isomer, unassigned) [Compound Z24-1] | > 30000 nM | 28 nM | 536 nM |  | 291 nM |  |  |  | 
C=CC(=O)N1C[C@@H]2C(=O)N(C)c3c(c4cc(F)c(-c5c(O)cccc5F)nc4n(-c4c(C)ccnc4C(C)C)c3=O)N2C[C@H]1C (single isomer, unassigned) [Compound Z10-1] | > 10000 nM | 70 nM | 460 nM |  | 708 nM |  |  |  | 
C=CC(=O)N1C[C@@H]2C(=O)N(C)c3c(c4cc(F)c(-c5c(O)cccc5F)nc4n(-c4c(C)cnn4C(C)C)c3=O)N2C[C@H]1C (single isomer, unassigned) [Compound Z33-1] | > 30000 nM | 74 nM |  | 92 nM | 515 nM |  |  |  | 
C=CC(=O)N1CCN2c3c(c(=O)n(-c4c(C)ccnc4C(C)C)c4nc(-c5c(O)cccc5F)c(F)cc34)N(C)C(=O)[C@H]2C1 (single isomer, unassigned) [Compound Z9-1] |  | 218 nM |  |  | 2570 nM | > 10000 nM |  |  | 

From patent publication US12054497B2, “Substituted heterocyclic fused cyclic compound, preparation method therefor and pharmaceutical use thereof” (GENFLEET THERAPEUTICS (SHANGHAI) INC., priority 2019, dated 2024)
